Measured values: PMC12254266, “Multicolored sequential resonance energy transfer for detection of simultaneous ligand binding at G protein-coupled receptors” (Nature Communications, 2025)
“And” between values parts separate entries of the source, which are not always exact repeats. Equal values may be shown once.

Molecular target: FFA1 (Homo sapiens, UniProt O14842)
Experiment: Ca2+ mobilisation (Fura2) in Flp-In T-REx 293 cells expressing Nluc-FFA1, FFA1-Nluc or untagged FFA1
Type: cell-based
Parameters: expressed in transfected cells
Details: for pEC50: Ca2+ data, mean±SEM; for pEC50 / EMax: NR = No response; for EMax: percentage of response to 10 μM T360; for Ca2+ Response as a % of T360 Response: single technical replicates
Experimental: Nluc-FFA1, FFA1-Nluc or untagged FFA1 Flp-In T-REx 293 cells were plated at 50,000 cells per well in poly-D-lysine coated black clear bottom 96-well plates. Cells were then cultured for 24 h until reaching confluency before culture medium was replaced with medium containing 100 ng/mL of doxycycline to induce receptor expression. Cells were cultured for a further 24 h before the assay. On the day of the assay culture medium was removed and replaced with medium containing 3 μM Fura2-AM Ca^2+ dye. […] Fura2 fluorescent emission at 520 nm following excitation with each of 340 and 380 nm was measured in regular intervals both before and after adding test compounds for a total of 90 s per well. Calcium responses were determined by taking the peak 340/380 ratio after first subtracting the ratios obtained prior to addition of test compound.

FFA1, sequence (O14842 whole entry): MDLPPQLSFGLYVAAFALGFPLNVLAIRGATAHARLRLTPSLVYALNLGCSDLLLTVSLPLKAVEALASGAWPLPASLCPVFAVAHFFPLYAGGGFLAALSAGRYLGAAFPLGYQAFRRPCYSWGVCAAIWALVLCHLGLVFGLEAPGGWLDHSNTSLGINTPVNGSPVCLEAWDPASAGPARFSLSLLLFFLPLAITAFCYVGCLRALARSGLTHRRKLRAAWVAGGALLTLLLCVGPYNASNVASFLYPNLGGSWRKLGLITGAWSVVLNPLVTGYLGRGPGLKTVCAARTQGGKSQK

Question: What does the source list for `COc1ccc(C(=O)N2CCC(CCNC(=O)OC(C)(C)C)CC2)c(N2CCC(COc3cccc(C(CC(=O)O)C4CC4)c3)CC2)c1.O=C(O)C(F)(F)F` (stereo not shown) [TUG-2451]?
Answer: pEC50: 6.20±0.14; EMax: 112±10%

Question: For `COc1ccc(C(=O)N2CCN(CCNC(=O)OC(C)(C)C)CC2)c(N2CCC(COc3cccc(C(CC(=O)O)C4CC4)c3)CC2)c1.Cl` (stereo not shown) [TUG-2458], which pEC50 is on record?
Answer: 5.38±0.09

Question: And the EMax?
Answer: 133±5%

Question: What does the source list for `COc1ccc(C(=O)N(CC(C)(C)C)c2cccc(C)n2)c(N2CCC(COc3cccc(C(CC(=O)NCCCNc4ccc([N+](=O)[O-])c5nonc45)C4CC4)c3)CC2)c1.O=C(O)C(F)(F)F` (stereo not shown) [TUG-2598]?
Answer: activity in Ca2+ assays (in words): loss of activity; Ca2+ Response as a % of T360 Response (log[Ligand] -5): 7.1012% and 15.2717% and 1.6246% and 2.7551% and 3.0159% and 6.2735% and 0.8241% and 1.6284% and -0.5359%; Ca2+ Response as a % of T360 Response (log[Ligand] -5.5): 1.5741% and 1.0900% and 0.3918% and 0.5253% and 0.2798% and 0.0720% and 0.3603% and 1.4514% and 1.2937%; Ca2+ Response as a % of T360 Response (log[Ligand] -6): 0.7619% and 0.7231% and 2.0549% and 2.7546% and 3.4553% and 0.9789% and -0.3872% and -0.5141% and 0.0396%; Ca2+ Response as a % of T360 Response (log[Ligand] -6.5): 0.0902% and 2.5170% and 0.7188% and 6.6987% and 2.2005% and 0.1478% and -0.6706% and 0.0668% and 0.2619%; Ca2+ Response as a % of T360 Response (log[Ligand] -7): 0.1653% and 1.3781% and 1.4889% and 2.9024% and 3.7196% and 2.7339% and -0.5451% and -0.2430% and 0.9384%; Ca2+ Response as a % of T360 Response (log[Ligand] -8): 0.4880% and 2.3639% and 0.4031% and 3.7453% and 1.7322% and 2.3495% and 0.5137% and 0.8889% and 1.3866%; Ca2+ Response as a % of T360 Response (log[Ligand] -9): 4.5581% and 0.9272% and 0.1871% and 0.2081% and 3.1188% and 3.6549% and 0.3770% and -0.1948% and -0.1822%

Question: How did the pEC50 turn out when `COc1ccc(C(=O)N2CCC(CNC(=O)OC(C)(C)C)CC2)c(N2CCC(COc3cccc(C(CC(=O)O)C4CC4)c3)CC2)c1.O=C(O)C(F)(F)F` (stereo not shown) [TUG-2450] was run?
Answer: 6.18±0.09

Question: And the EMax?
Answer: 108±7%

Question: Which pEC50 does the source give for `COc1ccc(C(=O)N(CCNC(=O)OC(C)(C)C)c2ccccc2)c(N2CCC(COc3cccc(C(CC(=O)O)C4CC4)c3)CC2)c1.Cl` (stereo not shown) [TUG-2455] here?
Answer: 6.63±0.10

Question: What about the EMax of the same compound?
Answer: 103±12%
